Test results taken from paper PMC10751319, “Bacterial extracellular vesicles: towards realistic models for bacterial membranes in molecular interaction studies by surface plasmon resonance” (Frontiers in Molecular Biosciences, 2023).
In brackets after ≈: the same amount, converted by molar mass. Where two headings read alike, the source gives them in different places. Non-standard residues stand in square brackets, D forms with d. Residues, ends and D or L forms follow the SMILES beside them.

Experiments:
A. baumannii K47-42 = assay type: cell-based, Acinetobacter baumannii
Experimental: (§1) MIC for all test peptides was determined following EUCAST clinical standard ([Hasselmann, 2003]). Briefly, 3–4 colonies were picked by a cotton swab from freshly plated cultures on agar and resuspended in sterile saline solution. Turbidity of inoculum was adjusted to 0.5 McFarland standard units prior to ×100 dilution in Mueller-Hinton broth. Antimicrobial peptides were dissolved in the broth at the stock concentration of 512 μg/mL. […] Positive control of bacterial culture diluted with broth and negative control of blank broth were included for each bacterial strain. The MICs were determined after incubation of the plates at 37°C for 18 h and red as the concentration of antimicrobial peptide at the next to the last well where bacterial growth was detected.

P. aeruginosa K34-7 = assay type: cell-based, Pseudomonas aeruginosa
Experimental: as §1

E. coli ΔtolA JW0729-KC = assay type: cell-based, Escherichia coli; details: Mueller-Hinton broth, 256 to 2 μg/mL, 37°C, 18 h
Experimental: as §1

K. pneumoniae K47-25 = assay type: cell-based, Klebsiella pneumoniae
Experimental: as §1

bEVs from E. coli ΔtolA = details: for koff rate constant determined by SPR / Calculated kon rate constant: E. coli ΔtolA bEVs; for koff rate constant determined by SPR: 400 s dissociation phase, Figueira et al. 2017 formalism, 25°C; for koff rate constant determined by SPR / Kd: three parallels; for Calculated kon rate constant: calculated from KD and koff (KD=koff/kon); for Kd: read-out: Dissociation constant KD determined by SPR, E. coli ΔtolA bEVs on L1 chip, Biacore T200, 25°C, 10 mM HEPES, 150 mM NaCl, steady-state fit
Excerpt: (§2) By this, the dissociation constant KD and the disassociation rate koff were obtained. These constants allowed us to calculate kon rate, using Eq. 4.

bEVs from K. pneumoniae = assay: SPR interaction with immobilized bEVs; details: for koff rate constant determined by SPR / Calculated kon rate constant: K. pneumoniae bEVs; for koff rate constant determined by SPR: 400 s dissociation phase, Figueira et al. 2017 formalism, 25°C; for koff rate constant determined by SPR / Kd: three parallels; for Calculated kon rate constant: calculated from KD and koff (KD=koff/kon); for Kd: read-out: Dissociation constant KD determined by SPR, K. pneumoniae bEVs on L1 chip, Biacore T200, 25°C, 10 mM HEPES, 150 mM NaCl, steady-state fit
Excerpt: as §2

bEVs from P. aeruginosa = assay: SPR interaction with immobilized bEVs; details: for koff rate constant determined by SPR / Calculated kon rate constant: P. aeruginosa bEVs; for koff rate constant determined by SPR: 400 s dissociation phase, Figueira et al. 2017 formalism, 25°C; for koff rate constant determined by SPR / Kd: three parallels; for Calculated kon rate constant: calculated from KD and koff (KD=koff/kon); for Kd: read-out: Dissociation constant KD determined by SPR, P. aeruginosa bEVs on L1 chip, Biacore T200, 25°C, 10 mM HEPES, 150 mM NaCl, steady-state fit
Excerpt: as §2

bEVs from A. baumannii = assay: SPR interaction with immobilized bEVs; details: for koff rate constant determined by SPR / Calculated kon rate constant: A. baumannii bEVs; for koff rate constant determined by SPR: 400 s dissociation phase, Figueira et al. 2017 formalism, 25°C; for koff rate constant determined by SPR / Kd: three parallels; for Calculated kon rate constant: calculated from KD and koff (KD=koff/kon); for Kd: read-out: Dissociation constant KD determined by SPR, A. baumannii bEVs on L1 chip, Biacore T200, 25°C, 10 mM HEPES, 150 mM NaCl, steady-state fit
Excerpt: as §2

[1] = test system: liposomes prepared from E. coli ΔtolA lipid isolate; assay: SPR interaction with immobilized liposomes; details: for koff rate constant determined by SPR / Calculated kon rate constant: Liposomes from E. coli ΔtolA lipid isolate; for koff rate constant determined by SPR: 400 s dissociation phase, Figueira et al. 2017 formalism, 25°C; for koff rate constant determined by SPR / Kd: three parallels; for Calculated kon rate constant: calculated from KD and koff (KD=koff/kon); for Kd: read-out: Dissociation constant KD determined by SPR, Liposomes from E. coli ΔtolA lipid isolate on L1 chip, Biacore T200, 25°C, 10 mM HEPES, 150 mM NaCl, steady-state fit
Excerpt: as §2

[2] = strain not stated; ref Junkes et al., 2008; Bagheri, 2010; Gopal et al., 2012; Finger et al., 2015; Rainsford et al., 2022; Jakubec et al., 2023; cited from earlier work
[3] = A. baumannii K47-42, clinical multi-resistant, Mueller-Hinton broth, 256 to 2 μg/mL, 37°C, 18 h
[4] = P. aeruginosa K34-7, clinical multi-resistant, Mueller-Hinton broth, 256 to 2 μg/mL, 37°C, 18 h
[5] = K. pneumoniae K47-25, clinical multi-resistant, Mueller-Hinton broth, 256 to 2 μg/mL, 37°C, 18 h

| SMILES | MIC (A. baumannii K47-42; K47-42, 18 h) | MIC (E. coli ΔtolA JW0729-KC) | MIC (K. pneumoniae K47-25; K47-25, 18 h) | koff rate constant determined by SPR (bEVs from E. coli ΔtolA) | Calculated kon rate constant (bEVs from E. coli ΔtolA) | Kd (bEVs from E. coli ΔtolA) | koff rate constant determined by SPR (bEVs from K. pneumoniae) | Calculated kon rate constant (bEVs from K. pneumoniae) | Kd (bEVs from K. pneumoniae) | koff rate constant determined by SPR (bEVs from P. aeruginosa) | Calculated kon rate constant (bEVs from P. aeruginosa) | Kd (bEVs from P. aeruginosa) | koff rate constant determined by SPR (bEVs from A. baumannii) | Calculated kon rate constant (bEVs from A. baumannii) | Kd (bEVs from A. baumannii) | koff rate constant determined by SPR [1] | Calculated kon rate constant [1] | Kd [1] | MIC (A. baumannii K47-42; [3]) | MIC (P. aeruginosa K34-7; [4]) | further results |
| --- | --- | --- | --- | --- | --- | --- | --- | --- | --- | --- | --- | --- | --- | --- | --- | --- | --- | --- | --- | --- | --- |
| N=C(N)NCCC[C@@H]1NC(=O)[C@H](Cc2c[nH]c3ccccc23)NC(=O)[C@H](CCCNC(=N)N)NC(=O)[C@H](Cc2c[nH]c3ccccc23)NC(=O)[C@H](CCCNC(=N)N)NC(=O)[C@H](Cc2c[nH]c3ccccc23)NC1=O [c-WRWRWR] (cyclo(WRWRWR)) | > 256 µg/mL | 128 µg/mL (≈ 125 µM) | > 256 µg/mL |  |  |  |  |  |  |  |  |  |  |  |  |  |  |  |  |  | MIC (P. aeruginosa K34-7; K34-7, 18 h): > 256 µg/mL |
| N=C(N)NCCC[C@@H]1NC(=O)[C@H](CCCNC(=N)N)NC(=O)[C@H](Cc2c[nH]c3ccccc23)NC(=O)[C@H](Cc2c[nH]c3ccccc23)NC(=O)[C@H](Cc2c[nH]c3ccccc23)NC(=O)[C@H](CCCNC(=N)N)NC1=O [c-WWWRRR] (cyclo(WWWRRR)) | > 256 µg/mL | 4 µg/mL (≈ 3.89 µM) | 256 µg/mL (≈ 249 µM) | 0.18 ± 0.02 s⁻¹ | 7000 ± 1000 M⁻¹ s⁻¹ | 27 ± 1.6 µM | 0.28 ± 0.01 s⁻¹ | 8000 ± 1000 M⁻¹ s⁻¹ | 35.8 ± 1.3 µM | 0.37 ± 0.04 s⁻¹ | 6000 ± 1000 M⁻¹ s⁻¹ | 59 ± 2.6 µM | 0.40 ± 0.06 s⁻¹ | 8000 ± 2000 M⁻¹ s⁻¹ | 48.7 ± 2.7 µM | 0.51 ± 0.08 s⁻¹ | 11000 ± 1000 M⁻¹ s⁻¹ | 47.8 ± 5.2 µM |  |  |  |
| NCCCC[C@@H]1NC(=O)[C@H](Cc2c[nH]c3ccccc23)NC(=O)[C@H](CCCCN)NC(=O)[C@H](Cc2c[nH]c3ccccc23)NC(=O)[C@H](CCCCN)NC(=O)[C@H](Cc2c[nH]c3ccccc23)NC1=O [c-WKWKWK] (cyclo(WKWKWK)) |  | 256 µg/mL (≈ 271 µM) |  | 1.42 ± 0.16 s⁻¹ | 4000 ± 1000 M⁻¹ s⁻¹ | 381 ± 22.6 µM | 1.51 ± 0.54 s⁻¹ | 2000 ± 1000 M⁻¹ s⁻¹ | 694 ± 37.3 µM | 1.52 ± 0.37 s⁻¹ | 2000 ± 1000 M⁻¹ s⁻¹ | 749 ± 117 µM | 0.82 ± 0.11 s⁻¹ | 2000 ± 1000 M⁻¹ s⁻¹ | 389 ± 32.5 µM | 0.95 ± 0.20 s⁻¹ | 4000 ± 1000 M⁻¹ s⁻¹ | 244 ± 39.5 µM | > 256 µg/mL | > 256 µg/mL | MIC (K. pneumoniae K47-25; [5]): > 256 µg/mL |
| CC(C)C[C@@H]1NC(=O)[C@@H](CCCNC(=N)N)NC(=O)[C@H](CCCCN)NC(=O)[C@H](CC(N)=O)NC(=O)[C@@H](Cc2c[nH]c3ccccc23)NC(=O)[C@H](Cc2c[nH]c3ccccc23)NC1=O [c-LWwNKr, reference compound] (cyclo(LW[dW]NK[dR])) |  | > 256 µg/mL |  | 1.42 ± 0.27 s⁻¹ | 3000 ± 1000 M⁻¹ s⁻¹ | 406 ± 38.1 µM | 1.75 ± 0.55 s⁻¹ |  | 1080 ± 49 µM | 1.78 ± 0.54 s⁻¹ |  | 1040 ± 270 µM | 1.72 ± 0.45 s⁻¹ |  | 858 ± 61.4 µM | 1.67 ± 0.45 s⁻¹ | 2000 ± 1000 M⁻¹ s⁻¹ | 966 ± 170 µM | > 256 µg/mL | > 256 µg/mL | MIC (K. pneumoniae K47-25; [5]): > 256 µg/mL; MIC (without antimicrobial activity) [2]: > 256 µg/mL |
| NCCCC[C@@H]1NC(=O)[C@H](CCCCN)NC(=O)[C@H](Cc2c[nH]c3ccccc23)NC(=O)[C@H](Cc2c[nH]c3ccccc23)NC(=O)[C@H](Cc2c[nH]c3ccccc23)NC(=O)[C@H](CCCCN)NC1=O [c-WWWKKK] (cyclo(WWWKKK)) | > 256 µg/mL | 4 µg/mL (≈ 4.24 µM) | > 256 µg/mL | 0.62 ± 0.05 s⁻¹ | 11000 ± 1000 M⁻¹ s⁻¹ | 56.5 ± 1 µM | 0.37 ± 0.03 s⁻¹ | 18000 ± 1000 M⁻¹ s⁻¹ | 21 ± 0.7 µM | 0.62 ± 0.07 s⁻¹ | 6000 ± 1000 M⁻¹ s⁻¹ | 100 ± 4.1 µM | 0.63 ± 0.12 s⁻¹ | 6000 ± 2000 M⁻¹ s⁻¹ | 100 ± 13.1 µM | 0.21 ± 0.01 s⁻¹ | 7000 ± 1000 M⁻¹ s⁻¹ | 28.3 ± 4.2 µM |  |  |  |
